The target of one test is T1, rat mGluR5 receptor (Rattus norvegicus, UniProt P31424).
T1 construct: expressed in transfected cells; host or cells: HEK-293
Kind of test: [3H]-MPEP binding HEK-293 cell membranes expressing a rat mGluR5 receptor. Particulars: displacement of 4 nM [3H]-MPEP, HEK-293 cell membranes expressing rat mGluR5, 60 minute at room temperature; read-out: mGluR5 Ligand Binding DR Ki. The method, then: TITLE: [^3H]-MPEP binding HEK-293 cell membranes expressing a rat mGluR5 receptor. PURPOSE: To identify high affinity compounds at the rat mGluR5 receptor based on their ability to displace the mGluR5 negative allosteric modulator, MPEP.
mGluR5 expressing HEK-293 cells are scraped off the plate, transferred to centrifuge tubes, and washed twice by centrifugation (2000 rpm for 10 min., 4° C.) in buffer (50 mM Tris pH 7.5). The resulting pellets are aliquoted and placed at −80° C. On the day of assay, the cells are thawed on ice, and resuspended in buffer. The binding assay is performed in a 96 well microtiter plate in a total volume of 250 μL. Non-specific binding is determined in the presence of 10 μM MPEP. Binding reaction includes a final radioligand [^3H]-MPEP concentration of 4 nM and 12-25 ug membrane protein per well. Following a 60 minute incubation at room temperature, the reaction is terminated by the addition of ice cold buffer and rapid filtration through a GF/B filter presoaked for 30 minutes in 0.5% PEI. Compounds are initially tested in a single point assay to determine percent inhibition at 10 μM. Subsequently, Ki values are determined for compounds defined to be active.
% inhibition and Ki values generated by GraphPad Prism and Excel Fit. IC50 values are calculated using GraphPad by fitting to a 1 or 2 site-binding model. Ki values are calculated from the apparent IC50 values using the Cheng-Prussof equation:
(§1) where [L]=concentration of free radioligand and Kd=dissociation constant of radioligand for the receptor. TITLE: Identification of metabotropic glutamate receptor 5 antagonists using a stable, sensitive fluorescence-based screening system PURPOSE: The aim of the research presented here was to develop a robust functional assay to measure changes in intracellular calcium, with the goal of identifying potent mGluR5 antagonists.

Test [1] addresses T2, metabotropic glutamate receptor 5 (Rattus norvegicus, UniProt P31424).
T2 construct: expressed in transfected cells; host or cells: HEK-293
Kind of test: FLIPR Calcium 3 fluorescence-based functional assay of intracellular calcium, mGluR5 antagonist activity. Format: cell-based. The note with it: inhibition of glutamate (EC90, ~50 uM) stimulated calcium levels, mGluR5 HEK-293 cells; read-out: mGluR5 FLIPR MP Antagonist DR IC50.
Excerpt: as §1
The FLIPR Calcium 3 Assay Kit is designed to work with many cell types, both adherent and non-adherent. Optimal cell conditions for the FLIPR Calcium 3 Assay Kit require the creation of a confluent cell monolayer before placing the plates in FLIPR or FlexStation. In general, we start with 50,000 mGluR5 HEK-293 cells/well for a 96-well plate. For adherent cells, seeding cells overnight with a plating volume of 100 μL/well worked for 96-well plates.
Remove cell plates from the incubator. Remove the supernatant medium. Add 180 ul of Loading Buffer to each well (for 96-well plates). HBSS buffer component B) pipette 100 mL of 10× Hank's Balanced Salt Solution and 20 mL of 1M Hepes buffer
Incubate cell plates for 1 hour at 37° C. and then keep the plates at room temperature until used.
After incubation, transfer the plates directly to FLIPR and begin the calcium assay as described in the FLIPR system manual. For a signal test, a starting average count of ˜10,000 is recommended. Recommended experimental setup parameters are as follows. Faster addition speeds can lead to better mixing of compounds and lower signal variance across the plate.
Test or reference compound is added to the 96-well plate (manually). […] Relative Fluorescence Units (RFUs) are recorded over a given time period (stated above) depending on the platform system used.
For antagonists, results are expressed as % inhibition of glutamate stimulated Calcium levels. IC50 values were calculated by Prism GraphPad using a 4-parameter logistic equation. IC50 values are calculated using GraphPad by fitting to a 1 site-model.
(Calcium flux is commonly read through the fluorescence of an indicator in the cells.)

T2 sequence (P31424 21-1203): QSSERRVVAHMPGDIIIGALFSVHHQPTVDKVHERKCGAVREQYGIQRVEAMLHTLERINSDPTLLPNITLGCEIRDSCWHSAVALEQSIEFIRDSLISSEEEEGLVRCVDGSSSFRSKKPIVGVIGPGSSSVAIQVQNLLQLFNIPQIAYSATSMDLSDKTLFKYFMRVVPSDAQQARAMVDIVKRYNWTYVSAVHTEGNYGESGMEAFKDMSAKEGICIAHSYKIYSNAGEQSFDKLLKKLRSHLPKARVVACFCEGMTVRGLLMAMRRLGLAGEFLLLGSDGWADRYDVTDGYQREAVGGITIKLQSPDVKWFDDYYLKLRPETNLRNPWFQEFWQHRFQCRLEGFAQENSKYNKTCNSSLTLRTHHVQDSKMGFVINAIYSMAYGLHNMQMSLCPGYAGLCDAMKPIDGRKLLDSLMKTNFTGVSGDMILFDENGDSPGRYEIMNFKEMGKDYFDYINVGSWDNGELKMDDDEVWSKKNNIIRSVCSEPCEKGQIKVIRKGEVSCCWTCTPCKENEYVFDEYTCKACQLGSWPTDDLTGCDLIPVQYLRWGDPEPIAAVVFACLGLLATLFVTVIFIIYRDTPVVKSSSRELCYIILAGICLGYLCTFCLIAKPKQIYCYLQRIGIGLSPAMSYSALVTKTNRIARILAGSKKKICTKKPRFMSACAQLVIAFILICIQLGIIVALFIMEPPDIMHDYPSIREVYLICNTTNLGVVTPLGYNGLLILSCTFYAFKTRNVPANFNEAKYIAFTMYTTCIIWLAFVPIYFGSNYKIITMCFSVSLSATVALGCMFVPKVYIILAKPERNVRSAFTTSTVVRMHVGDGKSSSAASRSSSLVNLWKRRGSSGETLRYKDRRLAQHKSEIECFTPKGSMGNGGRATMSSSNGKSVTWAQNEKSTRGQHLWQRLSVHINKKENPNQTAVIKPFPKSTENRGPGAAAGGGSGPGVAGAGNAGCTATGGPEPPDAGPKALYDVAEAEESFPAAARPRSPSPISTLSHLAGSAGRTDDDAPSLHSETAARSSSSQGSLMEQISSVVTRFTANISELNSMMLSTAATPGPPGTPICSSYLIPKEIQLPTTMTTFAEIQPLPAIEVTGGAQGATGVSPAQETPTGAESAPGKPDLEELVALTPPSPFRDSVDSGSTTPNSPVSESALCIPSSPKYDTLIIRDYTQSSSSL
T1 sequence (P31424 21-1203): as above

In general, Ki refers to the dissociation constant of the complex between target and ligand, obtained from inhibition or displacement. One may read the IC50 as the concentration at which inhibition is half-maximal. Take “2-[4-methoxy-3-(pyridin-2-ylethynyl)benzoyl]-7-(trifluoromethyl)-1,2,3,4-tetrahydroisoquinoline [Example 16]”: the Ki on rat mGluR5 receptor was determined as 1 nM. The IC50 in test [1] is 125 nM.
For “7-fluoro-2-[4-methoxy-3-(pyridin-2-ylethynyl)benzoyl]-1,2,3,4-tetrahydroisoquinoline [Example 9]”, on rat mGluR5 receptor, the Ki was found to be 3 nM. For the same molecule, the IC50 in test [1] was found to be 23 nM.
In the case of `COc1ccc(C(=O)N2Cc3ccccc3C2)cc1C#Cc1ccccn1` [Example 1, 2-[4-Methoxy-3-(pyridin-2-ylethynyl)benzoyl]isoindoline], on rat mGluR5 receptor, the Ki was 4 nM. Also, the IC50 in test [1] worked out at 10 nM.
Taken in the same sequence, the figures for `COc1ccc(C(=O)N2CCc3ccccc3C2)cc1C#Cc1ccccn1` [Example 2, 2-[4-methoxy-3-(pyridin-2-ylethynyl)benzoyl]-1,2,3,4-tetrahydroisoquinoline] were 3 nM and 24 nM.
Consider `COc1ccc(C(=O)N2CCc3c(F)cccc3C2)cc1C#Cc1ccccn1` [Example 3, 5-fluoro-2-[4-methoxy-3-(pyridin-2-ylethynyl)benzoyl]-1,2,3,4-tetrahydroisoquinoline], for which the Ki at rat mGluR5 receptor was 2 nM. The IC50 in test [1] turned out to be 44 nM.
The matching figures for `COc1ccc(C(=O)N2CCc3c(cccc3C(F)(F)F)C2)cc1C#Cc1ccccn1` [Example 4, 2-[4-methoxy-3-(pyridin-2-ylethynyl)benzoyl]-5-(trifluoromethyl)-1,2,3,4-tetrahydroisoquinoline]: 0.4 nM and 134 nM.
The matching figures for `COc1ccc(C(=O)N2CCc3cccc(C(F)(F)F)c3C2)cc1C#Cc1ccccn1` [Example 5, 2-[4-methoxy-3-(pyridin-2-ylethynyl)benzoyl]-8-(trifluoromethyl)-1,2,3,4-tetrahydroisoquinoline]: 2 nM and 151 nM.
`COc1ccc(C(=O)N2CCc3c(F)ccc(F)c3C2)cc1C#Cc1ccccn1` [Example 6, 5,8-difluoro-2-[4-methoxy-3-(pyridin-2-ylethynyl)benzoyl]-1,2,3,4-tetrahydroisoquinoline]: at rat mGluR5 receptor, the Ki is 2 nM. In addition, the IC50 in test [1] was 52 nM.
As to `COc1ccc(C(=O)N2CCc3c(Cl)cc(Cl)cc3C2)cc1C#Cc1ccccn1` [Example 7, 5,7-dichloro-2-[4-methoxy-3-(pyridin-2-ylethynyl)benzoyl]-1,2,3,4-tetrahydroisoquinoline], in test [1], the concentration for half-maximal inhibition (IC50) came out at 176 nM.
As to `COc1ccc(C(=O)N2CCc3ccc(Cl)cc3C2)cc1C#Cc1ccccn1` [Example 8, 7-chloro-2-[4-methoxy-3-(pyridin-2-ylethynyl)benzoyl]-1,2,3,4-tetrahydroisoquinoline], at rat mGluR5 receptor, the Ki worked out at 1 nM. In addition, the IC50 in test [1] is 16 nM.
Taken in the same sequence, the figures for `COc1ccc(C(=O)N2CCc3c(Cl)cccc3C2)cc1C#Cc1ccccn1` [Example 10, 5-chloro-2-[4-methoxy-3-(pyridin-2-ylethynyl)benzoyl]-1,2,3,4-tetrahydroisoquinoline] were 1 nM and 50 nM.
Turning to `COc1ccc(C(=O)N2CCc3ccc(C#N)cc3C2)cc1C#Cc1ccccn1` [Example 11, 2-[4-methoxy-3-(pyridin-2-ylethynyl)benzoyl]-1,2,3,4-tetrahydroisoquinoline-7-carbonitrile], the Ki on rat mGluR5 receptor stood at 11 nM. Also, in test [1], the IC50 came to 130 nM.
Turning to `COc1ccc(C(=O)N2CCc3[nH]c4ccccc4c3C2)cc1C#Cc1ccccn1` [Example 12, 2-[4-methoxy-3-(pyridin-2-ylethynyl)benzoyl]-2,3,4,5-tetrahydro-1H-pyrido[4,3-b]indole], the Ki on rat mGluR5 receptor is 8 nM. Further, in test [1], the IC50 is more than 1000 nM.
For `COc1ccc(C(=O)N2CCc3sccc3C2)cc1C#Cc1ccccn1` [Example 13, 5-[4-methoxy-3-(pyridin-2-ylethynyl)benzoyl]-4,5,6,7-tetrahydrothieno[3,2-c]pyridine], the Ki at rat mGluR5 receptor came out at 5 nM. Besides, the IC50 in test [1] worked out at 44 nM.
`COc1ccc(C(=O)N2CCc3ncc(Br)cc3C2)cc1C#Cc1ccccn1` [Example 14, 3-bromo-6-[4-methoxy-3-(pyridin-2-ylethynyl)benzoyl]-5,6,7,8-tetrahydro-1,6-naphthyridine]: the Ki at rat mGluR5 receptor is 8 nM. The IC50 in test [1] is 51 nM.
For `COc1ccc(C(=O)N2CCc3nc[nH]c(=O)c3C2)cc1C#Cc1ccccn1` [Example 15, 6-[4-methoxy-3-(pyridin-2-ylethynyl)benzoyl]-5,6,7,8-tetrahydropyrido[4,3-d]pyrimidin-4(3H)-one], at rat mGluR5 receptor, the Ki was found to be 96 nM.
As for `COc1ccc(C(=O)N2Cc3ccccc3C2CC(C)(C)O)cc1C#Cc1ccccn1` (centres unmarked) [Example 17, 1-{2-[4-methoxy-3-(pyridin-2-ylethynyl)benzoyl]-2,3-dihydro-1H-isoindol-1-yl}-2-methylpropan-2-ol], the Ki on rat mGluR5 receptor came out at 612 nM.
As to `COc1ccc(C(=O)N2C3CCC2c2ccccc23)cc1C#Cc1ccccn1` [Example 18, 9-[4-methoxy-3-(pyridin-2-ylethynyl)benzoyl]-1,2,3,4-tetrahydro-1,4-epiminonaphthalene], on rat mGluR5 receptor, the Ki amounted to 1120 nM.
With `COc1ccc(C(=O)N2CCc3cccc(C4CCN(S(C)(=O)=O)CC4)c3C2)cc1C#Cc1ccccn1` [Example 23, 2-[4-methoxy-3-(pyridin-2-ylethynyl)benzoyl]-8-[1-(methylsulfonyl)piperidin-4-yl]-1,2,3,4-tetrahydroisoquinoline], on rat mGluR5 receptor, the Ki is more than 10000 nM.
As for `COc1ccc(C(=O)N2Cc3ccccc3C(Oc3ccc(C(F)(F)F)cc3)C2)cc1C#Cc1ccccn1` (centres unmarked) [Example 24, 2-[4-methoxy-3-(pyridin-2-ylethynyl)benzoyl]-4-[4-(trifluoromethyl)phenoxy]-1,2,3,4-tetrahydroisoquinoline], at rat mGluR5 receptor, the Ki came to 520 nM.
As for `COc1ccc(C(=O)N2CCc3ccccc3[C@H]2[C@@H]2CCCO2)cc1C#Cc1ccccn1` [Example 28, (1S)-2-[4-methoxy-3-(pyridin-2-ylethynyl)benzoyl]-1-[(2S)-tetrahydrofuran-2-yl]-1,2,3,4-tetrahydroisoquinoline], at rat mGluR5 receptor, the Ki was 178 nM.
Same read-out and setting: under `COc1ccc(C(=O)N2CCc3ccccc3C2Cc2ccccc2)cc1C#Cc1ccccn1` (centres unmarked) [Example 30, 1-benzyl-2-[4-methoxy-3-(pyridin-2-ylethynyl)benzoyl]-1,2,3,4-tetrahydroisoquinoline] stands 327 nM.
For `COc1ccc(C(=O)N2CCn3c(nnc3C(F)(F)F)C2)cc1C#Cc1ccccn1` [Example 49, 7-{[4-methoxy-3-(pyridin-2-ylethynyl)phenyl]carbonyl}-3-(trifluoromethyl)-5,6,7,8-tetrahydro[1,2,4]triazolo[4,3-a]pyrazine], the Ki on rat mGluR5 receptor stood at 269 nM.
As to `COc1ccc(C(=O)N2CCNc3ccccc3C2)cc1C#Cc1ccccn1` [Example 56, 4-{[4-methoxy-3-(pyridin-2-ylethynyl)phenyl]carbonyl}-2,3,4,5-tetrahydro-1H-1,4-benzodiazepine], the inhibition constant (Ki) at rat mGluR5 receptor came out at 112 nM.
On to `O=C(c1ccc(OCC2CC2)c(C#Cc2ccccn2)c1)N1Cc2ccccc2C1` [Example 80, 2-{[4-(Cyclopropylmethoxy)-3-(pyridin-2-ylethynyl)phenyl]carbonyl}-2,3-dihydro-1H-isoindole], for which the Ki on rat mGluR5 receptor was found to be 189 nM.
As for `O=C(c1ccc(C(F)(F)F)c(C#Cc2ccccn2)c1)N1CCc2cccnc2C1` [Example 99, 7-{[3-(Pyridin-2-ylethynyl)-4-(trifluoromethyl)phenyl]carbonyl}-5,6,7,8-tetrahydro-1,7-naphthyridine], the Ki on rat mGluR5 receptor came to 34 nM.
The same measure, in the same setting: as for `O=C(c1ccc(C(F)(F)F)c(C#Cc2ccccn2)c1)N1Cc2ccncc2C1` [Example 102, 2-{[3-(Pyridin-2-ylethynyl)-4-(trifluoromethyl)phenyl]carbonyl}-2,3-dihydro-1H-pyrrolo[3,4-c]pyridine], the figure is 120 nM.

Source of the values: US20100273772A1, “Bisaryl Alkynylamides as Negative Allosteric Modulators of Metabotropic Glutamate Receptor 5 (MGLUR5)” (Wyeth LLC, priority 2009, published 2010).
